This is an account of results in US20250290117A1, “MOLECULAR PHENOTYPIC ANTIMICROBIAL SUSCEPTIBILITY TESTING” (priority 2024, published 2025).

This experiment concerns pathogens of clinical samples. The experiment is described as follows: Molecular phenotypic antimicrobial susceptibility test of clinical samples, direct PCR without a separate DNA purification step (Table 6). It is filed as cell-based. The procedure, abridged:
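Patient specimens in boric acid preservative were culture-incubated, diluted to 0.5 McFarland and exposed for 12-16 hours to antimicrobials in broth at their sensitivity breakpoint concentration(s), with a no-drug well for pathogen load. Growth was then measured by semi-quantitative PCR, either after DNA purification (e.g. magnetic beads) or directly after lysis-buffer treatment without extraction.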

[1] abbreviates: E. coli, clinical sample of r10-r24.
[2] abbreviates: E. coli, clinical sample of r10-r24, Ct control avg 12.97.
Setting [3] is: E. coli, clinical sample of r158-r172.
Where [4] appears, read: E. coli, clinical sample of r158-r172, Ct control avg 12.894.
Where [5] appears, read: E. faecalis, clinical sample of r93-r99.
[6] abbreviates: E. faecalis, clinical sample of r93-r99, Ct control avg 22.011.
Where [7] appears, read: E. faecalis, clinical sample of r100-r106, Ct control avg 21.027.
Setting [8] is: E. faecalis, clinical sample of r107-r113, Ct control avg 20.529.
The mark [9] stands for this setting: E. faecalis, clinical sample of r114-r120.
Where [10] appears, read: E. faecalis, clinical sample of r114-r120, Ct control avg 20.909.
Where [11] appears, read: E. faecalis, clinical sample of r151-r157.
Where [12] appears, read: E. faecalis, clinical sample of r151-r157, Ct control avg 18.551.
Setting [13] is: K. aerogenes, clinical sample of r136-r150.
Where [14] appears, read: K. aerogenes, clinical sample of r136-r150, Ct control avg 13.854.
The mark [15] stands for this setting: K. pneumoniae, clinical sample of r121-r135.
Where [16] appears, read: K. pneumoniae, clinical sample of r121-r135, Ct control avg […].
[17] abbreviates: M. morganii, clinical sample of r55-r69.
The mark [18] stands for this setting: M. morganii, clinical sample of r70-r84.
The mark [19] stands for this setting: M. morganii, clinical sample of r70-r84, Ct control avg 11.677.
Where [20] appears, read: P. mirabilis, clinical sample of r25-r39.
[21] abbreviates: P. mirabilis, clinical sample of r25-r39, Ct control avg 11.801.
Setting [22] is: P. mirabilis, clinical sample of r40-r54.
Where [23] appears, read: P. mirabilis, clinical sample of r40-r54, Ct control avg 10.06.
Where [24] appears, read: S. aureus, clinical sample of r85-r92.
The mark [25] stands for this setting: S. aureus, clinical sample of r85-r92, Ct control avg 20.309.
Setting [26] is: M. morganii, clinical sample of r55-r69, Ct control avg 12.09.

As to `C[C@H]1COc2c(N3CCN(C)CC3)c(F)cc3c(=O)c(C(=O)O)cn1c23` [Levofloxacin], the “Molecular Antibiotic Susceptibility Result” value reads like this: under setting [1], “Resistant”; under setting [3], “Sensitive (Antimicrobial wells with pathogen load detected below the control wells (typically >2 cycle thresholds later) may be reported as Sensitive)”; under setting [5], “Sensitive (Antimicrobial wells with pathogen load detected below the control wells (typically >2 cycle thresholds later) may be reported as Sensitive)”; under setting [9], “Sensitive (Antimicrobial wells with pathogen load detected below the control wells (typically >2 cycle thresholds later) may be reported as Sensitive)”; under setting [11], “Sensitive (Antimicrobial wells with pathogen load detected below the control wells (typically >2 cycle thresholds later) may be reported as Sensitive)”; under setting [13], “Sensitive (Antimicrobial wells with pathogen load detected below the control wells (typically >2 cycle thresholds later) may be reported as Sensitive)”. Further, the “Molecular Antibiotic Susceptibility Result” value runs as follows: under setting [15], “Sensitive (Antimicrobial wells with pathogen load detected below the control wells (typically >2 cycle thresholds later) may be reported as Sensitive)”; under setting [17], “Sensitive (Antimicrobial wells with pathogen load detected below the control wells (typically >2 cycle thresholds later) may be reported as Sensitive)”; under setting [18], “Sensitive (Antimicrobial wells with pathogen load detected below the control wells (typically >2 cycle thresholds later) may be reported as Sensitive)”; under setting [20], “Sensitive (Antimicrobial wells with pathogen load detected below the control wells (typically >2 cycle thresholds later) may be reported as Sensitive)”; under setting [22], “Sensitive (Antimicrobial wells with pathogen load detected below the control wells (typically >2 cycle thresholds later) may be reported as Sensitive)”; under setting [24], “Resistant”. Also, the Ct is given as 12.289 under setting [2]; 29.603 under setting [4]; 33.342 under setting [6]; 34.507 under setting [7]; 28.107 under setting [8]; 30.072 under setting [10]. The Ct runs as follows: under setting [12], 35.719; under setting [14], 33.354; under setting [16], 32.085; under setting [19], 29.614; under setting [21], 25.775; under setting [23], 30.018. Under setting [25], the Ct worked out at 16.32.
As for Piperacillin/Tazobactam, the “Molecular Antibiotic Susceptibility Result” value is “Sensitive (Antimicrobial wells with pathogen load detected below the control wells (typically >2 cycle thresholds later) may be reported as Sensitive)” under setting [1]; “Sensitive (Antimicrobial wells with pathogen load detected below the control wells (typically >2 cycle thresholds later) may be reported as Sensitive)” under setting [3]; “Sensitive (Antimicrobial wells with pathogen load detected below the control wells (typically >2 cycle thresholds later) may be reported as Sensitive)” under setting [13]; “Sensitive (Antimicrobial wells with pathogen load detected below the control wells (typically >2 cycle thresholds later) may be reported as Sensitive)” under setting [15]; “Sensitive (Antimicrobial wells with pathogen load detected below the control wells (typically >2 cycle thresholds later) may be reported as Sensitive)” under setting [17]; “Sensitive (Antimicrobial wells with pathogen load detected below the control wells (typically >2 cycle thresholds later) may be reported as Sensitive)” under setting [18]. Besides, the “Molecular Antibiotic Susceptibility Result” value by setting is: under setting [20], “Sensitive (Antimicrobial wells with pathogen load detected below the control wells (typically >2 cycle thresholds later) may be reported as Sensitive)”; under setting [22], “Sensitive (Antimicrobial wells with pathogen load detected below the control wells (typically >2 cycle thresholds later) may be reported as Sensitive)”. Besides, the Ct by setting is: under setting [2], 24.816; under setting [4], 29.34; under setting [14], 30.839; under setting [16], 28.974; under setting [26], 13.986; under setting [19], 28.975. Besides, the Ct runs as follows: under setting [21], 30.658; under setting [23], 30.24.
Turning to `O=C1CN(/N=C/c2ccc([N+](=O)[O-])o2)C(=O)N1` [Nitrofurantoin], the “Molecular Antibiotic Susceptibility Result” value is “Sensitive (Antimicrobial wells with pathogen load detected below the control wells (typically >2 cycle thresholds later) may be reported as Sensitive)” under setting [1]; “Sensitive (Antimicrobial wells with pathogen load detected below the control wells (typically >2 cycle thresholds later) may be reported as Sensitive)” under setting [3]; “Sensitive (Antimicrobial wells with pathogen load detected below the control wells (typically >2 cycle thresholds later) may be reported as Sensitive)” under setting [5]; “Sensitive (Antimicrobial wells with pathogen load detected below the control wells (typically >2 cycle thresholds later) may be reported as Sensitive)” under setting [9]; “Sensitive (Antimicrobial wells with pathogen load detected below the control wells (typically >2 cycle thresholds later) may be reported as Sensitive)” under setting [11]; “Sensitive (Antimicrobial wells with pathogen load detected below the control wells (typically >2 cycle thresholds later) may be reported as Sensitive)” under setting [13]. Besides, the “Molecular Antibiotic Susceptibility Result” value under setting [15] was “Sensitive (Antimicrobial wells with pathogen load detected below the control wells (typically >2 cycle thresholds later) may be reported as Sensitive)”; the “Molecular Antibiotic Susceptibility Result” value under setting [17] is “Sensitive (Antimicrobial wells with pathogen load detected below the control wells (typically >2 cycle thresholds later) may be reported as Sensitive)”; the “Molecular Antibiotic Susceptibility Result” value under setting [18] was “Sensitive (Antimicrobial wells with pathogen load detected below the control wells (typically >2 cycle thresholds later) may be reported as Sensitive)”; the “Molecular Antibiotic Susceptibility Result” value under setting [20] was “Resistant”; the “Molecular Antibiotic Susceptibility Result” value under setting [22] is listed as “Resistant”; the “Molecular Antibiotic Susceptibility Result” value under setting [24] is listed as “Sensitive (Antimicrobial wells with pathogen load detected below the control wells (typically >2 cycle thresholds later) may be reported as Sensitive)”. The Ct runs as follows: under setting [2], 24.883; under setting [4], 27.377; under setting [6], 36.826; under setting [7], 33.684; under setting [8], 32.294; under setting [10], 32.771. Besides, the Ct runs as follows: under setting [12], 37.634; under setting [14], 29.821; under setting [16], 28.708; under setting [26], 28.588; under setting [19], 29.959; under setting [21], 12.013. In addition, the Ct under setting [23] came out at 10.329 and the Ct under setting [25] stood at 32.477.
In the case of `CO[C@@]1(NC(=O)Cc2cccs2)C(=O)N2C(C(=O)O)=C(COC(N)=O)CS[C@@H]21` [Cefoxitin], the “Molecular Antibiotic Susceptibility Result” value under setting [1] is listed as “Sensitive (Antimicrobial wells with pathogen load detected below the control wells (typically >2 cycle thresholds later) may be reported as Sensitive)”; the “Molecular Antibiotic Susceptibility Result” value under setting [3] was “Sensitive (Antimicrobial wells with pathogen load detected below the control wells (typically >2 cycle thresholds later) may be reported as Sensitive)”; the “Molecular Antibiotic Susceptibility Result” value under setting [13] is “Resistant”; the “Molecular Antibiotic Susceptibility Result” value under setting [15] is on record as “Sensitive (Antimicrobial wells with pathogen load detected below the control wells (typically >2 cycle thresholds later) may be reported as Sensitive)”; the “Molecular Antibiotic Susceptibility Result” value under setting [17] is given as “Sensitive (Antimicrobial wells with pathogen load detected below the control wells (typically >2 cycle thresholds later) may be reported as Sensitive)”; the “Molecular Antibiotic Susceptibility Result” value under setting [18] is reported as “Sensitive (Antimicrobial wells with pathogen load detected below the control wells (typically >2 cycle thresholds later) may be reported as Sensitive)”. Moreover, the “Molecular Antibiotic Susceptibility Result” value under setting [20] was “Sensitive (Antimicrobial wells with pathogen load detected below the control wells (typically >2 cycle thresholds later) may be reported as Sensitive)”, the “Molecular Antibiotic Susceptibility Result” value under setting [22] is “Sensitive (Antimicrobial wells with pathogen load detected below the control wells (typically >2 cycle thresholds later) may be reported as Sensitive)” and the “Molecular Antibiotic Susceptibility Result” value under setting [24] was “Resistant”. In addition, the Ct was determined as 25.006 under setting [2]; 29.986 under setting [4]; 13.468 under setting [14]; 27.384 under setting [16]; 29.041 under setting [26]; 29.107 under setting [19]. Also, the Ct is, setting by setting: under setting [21], 27.055; under setting [23], 26.904; under setting [25], 20.586.
